Source: patent publication US11472808B2, “Substituted pyrrolo[1,2-c]pyrimidines as hepatitis B antiviral agents” (Enanta Pharmaceuticals, Inc., priority 2019, dated 2022)

What was measured:
[1] = Compound toxicity, ATPLite total ATP levels; type: cell-based; settings: human, HepG2 cells; concentration reducing total ATP levels by 50% relative to no drug controls; ATPLite three days after compound addition
Experimental: Compound toxicity is evaluated by seeding cells at 15,000 cells/well and treating with compound as described above.

HBV = test: HepAD38 anti-HBV assay: reduction of viral product accumulation (virion DNA qPCR, HBsAg/HBeAg ELISA); type: cell-based; settings: Hepatitis B virus, 120 h; HepAD38 cells; concentration reducing viral product accumulation by 50% relative to no drug controls; harvest five days after compound addition; read-out: HepAD38 EC50
Procedure, shortened: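 Tetracycline-free HepAD38 cells treated 5 days with compound (1:200 DMSO dilution), or 8 days with media and compound refreshed on d2 and d5. Virion DNA quantified by qPCR; HBsAg or HBeAg by ELISA. EC50 is the concentration reducing viral product accumulation 50% versus no-drug controls.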

Compound | CC50 at 3 days [1] [µM] | EC50 (HBV) [µM]
O=S(=O)(N[C@H]1CC2=C(c3ccn(C(F)F)n3)[C@H](c3ccc(F)cc3Cl)N=C(c3nccs3)N2C1)N1CCOCC1 [Example 74] | > 25 | < 0.1
CC1(O)CCN(S(=O)(=O)N[C@H]2CC3=C(c4ccn(C(F)F)n4)[C@H](c4ccc(F)cc4Cl)N=C(c4nccs4)N3C2)C1 (stereo partly shown) [Example 282] | > 25 | < 0.1
O=S(=O)(N[C@H]1CC2=C(c3ccn(C(F)F)n3)[C@H](c3ccc(F)cc3Cl)N=C(c3nccs3)N2C1)c1cccc(F)c1 [Example 386] | 10 to 25 | < 0.1
O=S(=O)(N[C@H]1CC2=C(c3ccn(C(F)F)n3)[C@H](c3ccc(F)cc3Cl)N=C(c3nccs3)N2C1)c1ccc([C@H]2CC[C@](O)(c3ccccn3)CC2)cc1 [Example 385] | > 25 | < 0.1
O=S(=O)(N[C@H]1CC2=C(c3ccn(C(F)F)n3)[C@H](c3ccc(F)cc3Cl)N=C(c3nccs3)N2C1)N1CCCC1 [Example 271] | 10 to 25 | < 0.1
O=S(=O)(N[C@H]1CC2=C(c3ccn(C(F)F)n3)[C@H](c3ccc(F)cc3Cl)N=C(c3nccs3)N2C1)N1CCCCC1 [Example 73] | 10 to 25 | < 0.1
CS(=O)(=O)Nc1ccc(S(=O)(=O)N[C@H]2CC3=C(c4ccn(C(F)F)n4)[C@H](c4ccc(F)cc4Cl)N=C(c4nccs4)N3C2)cc1 [Example 357] | > 25 | < 0.1
CCOC(=O)CC1(S(=O)(=O)N[C@H]2CC3=C(c4ccn(C(F)F)n4)[C@H](c4ccc(F)cc4Cl)N=C(c4nccs4)N3C2)CC1 [Example 369] | > 25 | < 0.1
O=S(=O)(N[C@H]1CC2=C(c3ccn(C(F)F)n3)[C@H](c3ccc(F)cc3Cl)N=C(c3nccs3)N2C1)[C@H]1CC[C@H](O)CC1 [Example 98] | > 25 | < 0.1
C[C@]1(NS(=O)(=O)C2CCC(O)(c3ccccn3)CC2)CC2=C(c3ccn(C(F)F)n3)[C@H](c3ccc(F)cc3Cl)N=C(c3nccs3)N2C1 (stereo partly shown) [Example 363] | 10 to 25 | < 0.1
O=S(=O)(N[C@H]1CC2=C(c3ccn(C(F)F)n3)[C@H](c3ccc(F)cc3Cl)N=C(c3nccs3)N2C1)N1CC[C@H](O)C1 [Example 91] | > 25 | < 0.1
O=S(=O)(N[C@H]1CC2=C(c3ccn(C(F)F)n3)[C@H](c3ccc(F)cc3Cl)N=C(c3nccs3)N2C1)N1CC2CC2C1 (stereo partly shown) [Example 273] | < 10 | < 0.1
O=S(=O)(N[C@H]1CC2=C(c3ccn(C(F)F)n3)[C@H](c3ccc(F)cc3Cl)N=C(c3nccs3)N2C1)c1ccc(Br)cn1 [Example 368] | > 25 | < 0.1
O=S(=O)(CCl)N[C@H]1CC2=C(c3ccn(C(F)F)n3)[C@H](c3ccc(F)cc3Cl)N=C(c3nccs3)N2C1 [Example 70] | > 25 | < 0.1
CC(C)(O)[C@@H]1CCCN1S(=O)(=O)N[C@H]1CC2=C(c3ccn(C(F)F)n3)[C@H](c3ccc(F)cc3Cl)N=C(c3nccs3)N2C1 [Example 289] | > 25 | < 0.1
O=S(=O)(N[C@H]1CC2=C(c3ccn(C(F)F)n3)[C@H](c3ccc(F)cc3Cl)N=C(c3nccs3)N2C1)N1CCC(O)(c2ccccn2)CC1 [Example 266] | > 25 | < 0.1

Compound | CC50 at 3 days [1] [µM] | EC50 (HBV) [µM]
O=S(=O)(N[C@H]1CC2=C(c3ccn(C(F)F)n3)[C@H](c3ccc(F)cc3Cl)N=C(c3nccs3)N2C1)N1CCC(O)(C(O)CO)CC1 (stereo partly shown) [Example 96] | > 25 | < 0.1
O=S(=O)(N[C@H]1CC2=C(c3ccn(C(F)F)n3)[C@H](c3ccc(F)cc3Cl)N=C(c3nccs3)N2C1)N1CCC(O)(c2cccnc2)CC1 [Example 264] | > 25 | < 0.1
O=S(=O)(N[C@H]1CC2=C(c3ccn(C(F)F)n3)[C@H](c3ccc(F)cc3Cl)N=C(c3nccs3)N2C1)N1CCCCC12CCC2 [Example 285] | > 25 | < 0.1
O=S(=O)(NCCO)N[C@H]1CC2=C(c3ccn(C(F)F)n3)[C@H](c3ccc(F)cc3Cl)N=C(c3nccs3)N2C1 [Example 78] | > 25 | < 0.1
O=S(=O)(N[C@H]1CC2=C(c3ccn(C(F)F)n3)[C@H](c3ccc(F)cc3Cl)N=C(c3nccs3)N2C1)c1ccc(Br)cc1 [Example 389] | > 25 | < 0.1
O=C1OCCN1S(=O)(=O)N[C@H]1CC2=C(c3ccn(C(F)F)n3)[C@H](c3ccc(F)cc3Cl)N=C(c3nccs3)N2C1 [Example 72] | > 25 | < 0.1
O=C1CCC(S(=O)(=O)N[C@H]2CC3=C(c4ccn(C(F)F)n4)[C@H](c4ccc(F)cc4Cl)N=C(c4nccs4)N3C2)CC1 [Example 97] | > 25 | < 0.1
O=S(=O)(N[C@H]1CC2=C(c3ccn(C(F)F)n3)[C@H](c3ccc(F)cc3Cl)N=C(c3nccs3)N2C1)C1CCC1 [Example 324] | 10 to 25 | < 0.1
COCCNS(=O)(=O)N[C@H]1CC2=C(c3ccn(C(F)F)n3)[C@H](c3ccc(F)cc3Cl)N=C(c3nccs3)N2C1 [Example 80] | > 25 | < 0.1
O=C1CCCN1C1CCN(S(=O)(=O)N[C@H]2CC3=C(c4ccn(C(F)F)n4)[C@H](c4ccc(F)cc4Cl)N=C(c4nccs4)N3C2)CC1 [Example 293] | > 25 | < 0.1
O=S(=O)(N[C@H]1CC2=C(c3ccn(C(F)F)n3)[C@H](c3ccc(F)cc3Cl)N=C(c3nccs3)N2C1)c1ccccn1 [Example 364] | > 25 | < 0.1
O=S(=O)(N[C@H]1CC2=C(c3ccn(C(F)F)n3)[C@H](c3ccc(F)cc3Cl)N=C(c3nccs3)N2C1)c1ccccc1F [Example 387] | > 25 | < 0.1
O=S(=O)(N[C@H]1CC2=C(c3ccn(C(F)F)n3)[C@H](c3ccc(F)cc3Cl)N=C(c3nccs3)N2C1)N1CCC(O)(c2nccs2)CC1 [Example 260] | > 25 | < 0.1
O=S(=O)(N[C@H]1CC2=C(c3ccn(C(F)F)n3)[C@H](c3ccc(F)cc3Cl)N=C(c3nccs3)N2C1)N1CC[C@@H](O)C1 [Example 92] | > 25 | < 0.1
O=S(=O)(N[C@H]1CC2=C(c3ccn(C(F)F)n3)[C@H](c3ccc(F)cc3Cl)N=C(c3nccs3)N2C1)N1CCC(F)(F)C1 [Example 276] | < 10 | < 0.1
CS(=O)(=O)NC1CCN(S(=O)(=O)N[C@H]2CC3=C(c4ccn(C(F)F)n4)[C@H](c4ccc(F)cc4Cl)N=C(c4nccs4)N3C2)C1 (stereo partly shown) [Example 290] | > 25 | < 0.1
